# US20180050029A1, “SELECTIVE CONNEXIN HEMICHANNELS BLOCKERS FOR THE TREATMENT OF EPILEPSY” (PONTIFICIA UNIVERSIDAD CATÓLICA DE CHILE, priority 2015, published 2018)
# Values joined by “and” are separate entries in the source; they are usually repeats but may differ in a detail not shown here. Equal values may be shown once. “Also recorded” adds a separate entry of the source.
# Experiments:
# [1] = system: hemichannels and channels formed by connexins and pannexins; test: Ethidium uptake in brain slices of PTZ-treated mice, slices treated with Cbx; format: cell-based; conditions: for PTZ-induced ethidium uptake: 20 min on slices, astrocytes, oligodendrocytes and neurons
# Description: Adult male mice at 2 months were injected intraperitoneally with PTZ (70 mg/kg) or PBS as a control. After 30 min post injection of the treatment, the action of Cbx at two concentrations was evaluate, 10 μM to block pannexin hemichannels and 100 μM to block both connexin and pannexin-based channels. The mice were sacrificed to extract the brains and obtain coronal slices 400 μm thick. The slices, once stabilized, were treated with Cbx for 20 min and then incubated with the ethidium bromide dye (4 μM) for 10 minutes. Thereafter, the slices were fixed and the immunofluorescence staining process was continued as described above. The mean data of ethidium uptake was normalized to the control condition (dotted line) of each cell type. […] The results obtained were expressed as the mean±SEM. Samples were determined using the Student's t-test (*p<0.05).
# [2] = system: PTZ-induced seizures in C57BL/6 mice; test: PTZ-induced seizures and mortality, anticonvulsant pretreatment; conditions: for Animal Mortality: dead/total animals
# C57B/6 mice = test: Toxicity or lethality of molecule D4, supervision protocol; format: in vivo; conditions: 0.2, 2, 20, 200, 2000 mg/kg i.p.
# Description: To evaluate the toxicity or lethality of the molecule D4, Two-month adult mice were injected intraperitoneally in increasing doses (0.2; 2; 20; 200; 2000 mg/kg mouse weight) and were left under observation for 72 hours. After the observation time, the behavioral and physiological aspects of the animals were evaluated based on the Protocol of Supervision according to the Bioethics and Biosafety guidelines of the Faculty of Biological Sciences of the Pontificia Universidad Catolica de Chile that rules in the laboratory. The variables considered included physiological data (weight loss), appearance (posture) and spontaneous behavior (attitude to stimulation). […] In addition, mortality was zero at all concentrations evaluated. The evaluation of mortality of the molecule D4 as an anticonvulsant drug administered in mice prior to the induction of epilepsy with PTZ was zero (Table 3).
# Measurements are performed by trained personnel, who know the basal or usual behavior of the animals under study.
# [3] = system: connexin hemichannels in brain cells; test: Ethidium uptake in brain slices of mice pretreated with D4 before PTZ; format: in vivo; conditions: D4 2 mg/kg i.p. six and one hour before PTZ (70 mg/kg), 30 min post PTZ; microglia, astrocytes and neurons
# Description: Immunofluorescence and visualization in confocal microscopy identified cell types.
# The mean data from ethidium uptake was normalized to the control condition (see FIG. 5, dotted line) of each cell type. […] The results obtained were expressed as the mean±SEM. Samples were determined using the Student's t-test (*p<0.05).
# [4] = system: connexin hemichannels in brain cells; test: Ethidium uptake in brain slices of PTZ-treated mice (time course); format: in vivo; conditions: PTZ 70 mg/kg i.p.
# Description: Adult male mice of 2 months were injected via i.p. with PTZ (70 mg/kg) or phosphate buffered saline (PBS) as a control. Mice were sacrificed after 10, 20 and 30 min post-treatment to extract the brains and generate coronal slices of 400 μm thick using a vibratome. The slices were stabilized for 1 h prior to dye uptake, immersed in ACSF (artificial cerebrospinal fluid), bubbled with 95% O2 and 5% CO2 and at room temperature. Brain slices were incubated with the ethidium bromide dye (Etd, 4 μM) for 10 minutes. Subsequently, the slices were washed and fixed for 1 h with paraformaldehyde (4%). The brain slices were incubated for 40 min with blocking solution (PBS, 0.2% gelatine, 1% triton). Subsequently, the samples were incubated overnight at 4° C. with the primary antibody against molecular markers of the different cell types: anti-mast cell “Transmembrane tyrosine kinase” receptor CD117 (CD117); Integrin αM anti-microglia (CD11b); anti-astrocytes “glial fibrillary acidic protein” (GFAP); anti-oligodendrocytes “proteolipid protein” (PLP) and anti-neuronal neuron-market (NeuN). After washing with PBS (phosphate buffered saline), they were incubated with the Cy2-conjugated secondary antibody for 2 hours at room temperature and avoiding light.
# Finally, the brain slices were washed and mounted on Flouromount G mounting medium and observed directly by the laser-scanning confocal microscope (Nikon Eclipse Ti). Consecutive images were taken with 40× target at 1 μm intervals sequentially with two lasers (Argon, 488 nm and Helium/Neon, 543 nm). In FIG. 1, representative images of mast cells (1.A, C), microglia (1.E, F), astrocytes (1.1, K), oligodendrocytes (1.M, O) and neurons (1.Q, S) and Etd-uptake of PTZ-induced control mice and mice (1.B, D, 1.F, H, 1.J, L, 1.N, P, 1.R, T).
# The mean data of ethidium uptake was normalized to the control condition (dotted line) of each cell type. […] The results obtained were expressed as the mean±SEM. Samples were determined using the Student's t-test (*p<0.05).
# adult C57BL/6 mice = test: PTZ dose response, epileptogenic episodes and mortality in mice; format: in vivo; conditions: for Mortality: dead/total animals
# Description: As epileptogenic agent, we used PTZ (Pentylenetetrazole), a GABAA receptor inhibitor widely used in the study and development of anticonvulsant drugs.
# To determine the effective dose, a dose response curve was performed based on the available literature. […]
# glial hemichannels = test: Application of PTZ to brain slices; format: cell-based; conditions: PTZ applied to brain slices
# [5] = PTZ (70 mg/kg) without molecule D4
smiles,measurement,setting,value
"CC1(C)[C@@H](OC(=O)CCC(=O)O)CC[C@]2(C)[C@H]3C(=O)C=C4[C@@H]5C[C@@](C)(C(=O)O)CC[C@]5(C)CC[C@@]4(C)[C@]3(C)CC[C@@H]12 [Carbenoxolone, carbenoxolone]",PTZ-induced ethidium uptake,[1]; Cbx 10 μM,block the uptake of ethidium
same,PTZ-induced ethidium uptake,[1]; Cbx 100 μM,block the uptake of ethidium
same,PTZ-induced hemichannel and channel activity,"[1]; FIG. 3 legend, macroglia and neurons",blocks hemispheric activity formed by PTZ-induced connexins and channels
"O=C(OC(C(=O)c1ccc(Cl)cc1)c1ccccc1)c1ccc2ccccc2n1 (centres unmarked) [Molecule D4, 2-(4-chlorophenyl)-2-oxo-1-phenylethyl quinoline-2-carboxylate]",Animal Mortality,[2]; Molecule D4 (2 mg/kg) prior to PTZ (70 mg/kg),zero
same,Mortality,C57B/6 mice; 72 hours observation,zero
same,observable side effects,"C57B/6 mice; 72 hours observation, 2000 mg/kg",no observed side effects; also recorded: no observable side effects
same,"supervision protocol score (weight loss, posture, spontaneous behavior)","C57B/6 mice; 72 hours, score 0-3 is normal",zero
same,PTZ-induced hemichannel activity (ethidium uptake),[3],blocks the activity of hemichannels formed by PTZ-induced connexin in brain cells; also recorded: not positive to Etd; also recorded: blocks PTZ-induced hemichannel activity and basal activation
"C1CCc2nnnn2CC1 [PTZ, Pentylenetetrazole]",% Mortality,[2]; [5],20%
same,Animal Mortality,[2]; [5],3/15
same,hemichannel activity (ethidium uptake) in brain slices,[4]; versus control mice,induces activity of connexin hemichannels in brain cells; also recorded: positive for high activity of hemichannels; also recorded: positive for Etd fluorescence
same,hemichannel activity (ethidium uptake normalized to control),"[4]; astrocytes and oligodendrocytes, first (FIG. 2.A)",increases the activity of the hemichannels
same,hemichannel activity (ethidium uptake normalized to control),"[4]; mast cells, microglia and neurons, after 30 min (FIG. 2.B and C)",increases the activity of the hemichannels
same,% Mortality,adult C57BL/6 mice; PTZ 65 mg/kg i.p. single dose,0%
same,Eliptogenic Episode,adult C57BL/6 mice; PTZ 65 mg/kg i.p. single dose,No
same,Mortality,adult C57BL/6 mice; PTZ 65 mg/kg i.p. single dose,0/3
same,% Mortality,adult C57BL/6 mice; PTZ 70 mg/kg i.p. single dose,20%
same,Eliptogenic Episode,adult C57BL/6 mice; PTZ 70 mg/kg i.p. single dose,induces convulsions and Yes
same,Mortality,adult C57BL/6 mice; PTZ 70 mg/kg i.p. single dose,without being lethal and 3/15
same,% Mortality,adult C57BL/6 mice; PTZ 75 mg/kg i.p. single dose,50%
same,Eliptogenic Episode,adult C57BL/6 mice; PTZ 75 mg/kg i.p. single dose,Yes
same,Mortality,adult C57BL/6 mice; PTZ 75 mg/kg i.p. single dose,2/4
same,% Mortality,adult C57BL/6 mice; PTZ 80 mg/kg i.p. single dose,100%
same,Eliptogenic Episode,adult C57BL/6 mice; PTZ 80 mg/kg i.p. single dose,Yes
same,Mortality,adult C57BL/6 mice; PTZ 80 mg/kg i.p. single dose,3/3
same,% Mortality,adult C57BL/6 mice; PTZ 90 mg/kg i.p. single dose,100%
same,Eliptogenic Episode,adult C57BL/6 mice; PTZ 90 mg/kg i.p. single dose,Yes
same,Mortality,adult C57BL/6 mice; PTZ 90 mg/kg i.p. single dose,3/3
same,time to develop seizures post-administration,adult C57BL/6 mice; PTZ-treated mice,≤ 10 min
same,behaviour in the hours after the seizures,"adult C57BL/6 mice; PTZ-treated mice, period of several hours",very low motor activity and sporadic contractions
same,epileptogenic episodes,adult C57BL/6 mice; higher doses (>100 mg/kg),induce epileptogenic episodes
same,mortality rate,"adult C57BL/6 mice; higher doses (>100 mg/kg), at 5 min after administration",100%
same,epileptogenic episodes,adult C57BL/6 mice; lower dose (<65 mg/kg),does not induce evident epileptogenic episodes
same,opening of glial hemichannels,glial hemichannels,induced the opening of glial hemichannels
"O=C1NC(=O)C(c2ccccc2)(c2ccccc2)N1 [phenytoin, Phenytoin]",prevention of PTZ-induced seizures,"[2]; phenytoin treatment, after 10 minutes of treatment",does not prevent PTZ-induced seizures
